Source: patent US9902730B2, “Compounds and compositions as toll-like receptor 7 agonists” (NOVARTIS AG, priority 2014, dated 2018)

Target: T1, human TLR7 (Homo sapiens, UniProt Q9NYK1)
T1 construct: expressed in transfected cells
T1 sequence (Q9NYK1 27-1049): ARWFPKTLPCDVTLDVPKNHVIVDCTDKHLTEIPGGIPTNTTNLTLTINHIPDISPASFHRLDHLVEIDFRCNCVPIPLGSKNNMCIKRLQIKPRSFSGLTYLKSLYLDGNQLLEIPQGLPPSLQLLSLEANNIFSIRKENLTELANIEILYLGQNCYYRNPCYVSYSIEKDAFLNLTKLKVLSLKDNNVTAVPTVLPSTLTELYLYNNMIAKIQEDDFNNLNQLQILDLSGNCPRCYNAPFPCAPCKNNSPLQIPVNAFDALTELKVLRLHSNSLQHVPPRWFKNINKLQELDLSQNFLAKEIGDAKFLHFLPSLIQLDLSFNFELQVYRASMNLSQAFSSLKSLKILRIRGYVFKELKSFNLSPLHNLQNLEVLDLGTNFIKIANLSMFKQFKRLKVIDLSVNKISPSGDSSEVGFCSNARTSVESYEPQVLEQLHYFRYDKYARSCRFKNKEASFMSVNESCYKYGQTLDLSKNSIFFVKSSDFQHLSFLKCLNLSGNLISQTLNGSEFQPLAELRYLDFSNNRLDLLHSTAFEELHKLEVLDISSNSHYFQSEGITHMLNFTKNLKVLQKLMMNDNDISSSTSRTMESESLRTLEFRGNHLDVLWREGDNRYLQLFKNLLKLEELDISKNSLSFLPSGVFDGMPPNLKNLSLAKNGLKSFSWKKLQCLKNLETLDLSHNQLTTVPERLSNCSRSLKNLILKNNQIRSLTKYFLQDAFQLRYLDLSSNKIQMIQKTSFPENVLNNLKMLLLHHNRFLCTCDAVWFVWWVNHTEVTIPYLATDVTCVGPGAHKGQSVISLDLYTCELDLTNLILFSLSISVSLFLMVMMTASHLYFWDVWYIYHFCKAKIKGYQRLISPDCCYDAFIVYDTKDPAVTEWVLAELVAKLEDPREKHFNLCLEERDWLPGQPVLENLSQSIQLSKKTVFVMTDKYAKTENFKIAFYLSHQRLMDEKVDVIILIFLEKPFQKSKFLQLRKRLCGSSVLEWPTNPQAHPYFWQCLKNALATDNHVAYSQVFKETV
Experiment: Reporter gene assay (HEK293 cells with human TLR7 and NF-kB-driven luciferase reporter)
Format: cell-based
Settings: HEK 293 cells stably transfected with human TLR7 and NF-kB-driven luciferase reporter; 7 hours incubation; EC50 relative to activity of resiquimod set to 100%
Protocol: Human embryonic kidney 293 (HEK 293) cells were stably transfected with human TLR7 and an NF-kB-driven luciferase reporter vector (pNifty-Luciferase). As a control assay, normal Hek293 transfected with pNifty-Luc were used. Cells were cultured in DMEM supplemented with 2 mM L-glutamine, 10% heart inactivated FBS, 1% penicillin and streptomycin, 2 μg/ml puromycin (InvivoGen #ant-pr-5) and 5 μg/ml of blasticidin (Invitrogen #46-1120). Bright-Glo™ Luciferase assay buffer and substrate were supplied by Promega #E263B and #E264B (assay substrate and buffer respectively). 384 well clear-bottom plates were supplied by Greiner bio-one (#789163-G) and were custom bar-coded plates.
Cells were plated at 25,000 cells/well in 384-well plates in a final volume of 50 μl of media. Cells were allowed to adhere to the plates after overnight (18 hours) culture at 37° C. and 5% CO2. Serially diluted experimental and positive control compounds were then dispensed to each well and incubated for 7 hours at 37° C. and 5% CO2. Cells stimulated with DMSO alone also serve as negative controls. After the incubation, 30 μl of the pre-mix assay buffer and substrate buffer were added to each well according to manufacturer's instructions. The luminescence signal was read on a CLIPR machine with an integration time of 20 seconds per plate.
Dose response curves are generated for each compound and EC50 values were determined as the concentration that gives 50% of the maximal signal.

EC50 [µM] | SMILES
0.1 | CCCCCNc1nc(N)nc2ccn(Cc3cc(OCc4nnn[nH]4)ccc3OC)c12 [Example 1, 5-(5-((1H-tetrazol-5-yl)methoxy)-2-methoxybenzyl)-N4-pentyl-5H-pyrrolo[3,2-d]pyrimidine-2,4-diamine]
0.05 | CCCCCNc1nc(N)nc2ccn(Cc3cc(Cc4nnn[nH]4)ccc3OC)c12 [Example 2, 5-(5-((1H-tetrazol-5-yl)methyl)-2-methoxybenzyl)-N4-pentyl-5H-pyrrolo[3,2-d]pyrimidine-2,4-diamine]
0.2 | CCCCCNc1nc(N)nc2ccn(Cc3cc(Cc4nnn(CC(=O)O)n4)ccc3OC)c12 [Example 3, 2-(5-(3-((2-amino-4-(pentylamino)-5H-pyrrolo[3,2-d]pyrimidin-5-yl)methyl)-4-methoxybenzyl)-2H-tetrazol-2-yl)acetic acid]
0.05 | CCCCCNc1nc(N)nc2ccn(Cc3cc(CC(=O)O)ccc3OC)c12 [Example 4, 2-(3-((2-amino-4-(pentylamino)-5H-pyrrolo[3,2-d]pyrimidin-5-yl)methyl)-4-methoxyphenyl)acetic acid]
0.4 | CCCC[C@@H](CO)Nc1nc(N)nc2ccn(Cc3cc(CC(=O)O)ccc3OC)c12 [Example 5, (S)-2-(3-((2-amino-4-((1-hydroxyhexan-2-yl)amino)-5H-pyrrolo[3,2-d]pyrimidin-5-yl)methyl)-4-methoxyphenyl)acetic acid]
0.1 | CCCC[C@@H](CO)Nc1nc(N)nc2ccn(Cc3cc(Cc4nnn[nH]4)ccc3OC)c12 [Example 6, (S)-2-((5-(5-((1H-tetrazol-5-yl)methyl)-2-methoxybenzyl)-2-amino-5H-pyrrolo[3,2-d]pyrimidin-4-yl)amino)hexan-1-ol]
0.8 | CCC[C@@H](CO)Nc1nc(N)nc2ccn(Cc3cc(Cc4nnn[nH]4)ccc3OC)c12 [Example 7, (S)-2-((5-(5-((1H-tetrazol-5-yl)methyl)-2-methoxybenzyl)-2-amino-5H-pyrrolo[3,2-d]pyrimidin-4-yl)amino)pentan-1-ol]
0.3 | CCCCCNc1nc(N)nc2ccn(Cc3cc(-c4nnn[nH]4)ccc3OC)c12 [Example 8, 5-(2-methoxy-5-(1H-tetrazol-5-yl)benzyl)-N4-pentyl-5H-pyrrolo[3,2-d]pyrimidine-2,4-diamine]
0.8 | CCCCCCNc1nc(N)nc2ccn(Cc3cc(-c4nnn[nH]4)ccc3OC)c12 [Example 9, N4-hexyl-5-(2-methoxy-5-(1H-tetrazol-5-yl)benzyl)-5H-pyrrolo[3,2-d]pyrimidine-2,4-diamine]
0.2 | CCCC[C@@H](CO)Nc1nc(N)nc2ccn(Cc3cc(-c4nnn[nH]4)ccc3OC)c12 [Example 10, (S)-2-((2-amino-5-(2-methoxy-5-(1H-tetrazol-5-yl)benzyl)-5H-pyrrolo[3,2-d]pyrimidin-4-yl)amino)hexan-1-ol]
0.1 | CCCCCNc1nc(N)nc2ccn(Cc3cc(C(C)(C)c4nnn[nH]4)ccc3OC)c12 [Example 11, 5-(5-(2-(1H-tetrazol-5-yl)propan-2-yl)-2-methoxybenzyl)-N4-pentyl-5H-pyrrolo[3,2-d]pyrimidine-2,4-diamine]
0.2 | CCCC[C@@H](CO)Nc1nc(N)nc2ccn(Cc3cc(C(C)(C)c4nnn[nH]4)ccc3OC)c12 [Example 12, (S)-2-((5-(5-(2-(1H-tetrazol-5-yl)propan-2-yl)-2-methoxybenzyl)-2-amino-5H-pyrrolo[3,2-d]pyrimidin-4-yl)amino)hexan-1-ol]
0.1 | CCCCCNc1nc(N)nc2ccn(Cc3cc(C(=O)O)ccc3OC)c12 [Example 13, 3-((2-amino-4-(pentylamino)-5H-pyrrolo[3,2-d]pyrimidin-5-yl)methyl)-4-methoxybenzoic acid]
1.4 | CCCCCNc1nc(N)nc2ccn(Cc3ccc(-c4nnn[nH]4)cc3OC)c12 [Example 14, 5-(2-methoxy-4-(1H-tetrazol-5-yl)benzyl)-N4-pentyl-5H-pyrrolo[3,2-d]pyrimidine-2,4-diamine]
0.06 | CCCCCNc1nc(N)nc2ccn(Cc3cc(CCc4nnn[nH]4)ccc3OC)c12 [Example 15, 5-(5-(2-(1H-tetrazol-5-yl)ethyl)-2-methoxybenzyl)-N4-pentyl-5H-pyrrolo[3,2-d]pyrimidine-2,4-diamine]
0.2 | CCCCCNc1nc(N)nc2ccn(Cc3cc(C(F)(F)c4nnn[nH]4)ccc3OC)c12 [Example 16, 5-(5-(difluoro(1H-tetrazol-5-yl)methyl)-2-methoxybenzyl)-N4-pentyl-5H-pyrrolo[3,2-d]pyrimidine-2,4-diamine]
0.5 | CCCCCNc1nc(N)nc2ccn(Cc3cc(C(F)(F)C(=O)O)ccc3OC)c12 [Example 17, 2-(3-((2-amino-4-(pentylamino)-5H-pyrrolo[3,2-d]pyrimidin-5-yl)methyl)-4-methoxyphenyl)-2,2-difluoroacetic acid]
0.6 | CCCCCNc1nc(N)nc2ccn(Cc3cc(CC[C@@H](O)C[C@@H](O)CC(=O)O)ccc3OC)c12 [Example 18, (3R,5R)-7-(3-((2-amino-4-(pentylamino)-5H-pyrrolo[3,2-d]pyrimidin-5-yl)methyl)-4-methoxyphenyl)-3,5-dihydroxyheptanoic acid]
0.08 | CCCCCNc1nc(N)nc2ccn(Cc3cc(P(=O)(O)O)ccc3OC)c12 [Example 19, (3-((2-amino-4-(pentylamino)-5H-pyrrolo[3,2-d]pyrimidin-5-yl)methyl)-4-methoxyphenyl)phosphonic acid]
0.4 | CCCCCNc1nc(N)nc2ccn(Cc3cc(CCC(=O)O)ccc3OC)c12 [Example 21, 3-(3-((2-amino-4-(pentylamino)-5H-pyrrolo[3,2-d]pyrimidin-5-yl)methyl)-4-methoxyphenyl)propanoic acid]
0.7 | CCCCCNc1nc(N)nc2ccn(Cc3cc(/C=C/C(=O)O)ccc3OC)c12 [Example 22, (E)-3-(3-((2-amino-4-(pentylamino)-5H-pyrrolo[3,2-d]pyrimidin-5-yl)methyl)-4-methoxyphenyl)acrylic acid]
0.4 | CCCC[C@@H](CO)Nc1nc(N)nc2ccn(Cc3cc(CCC(=O)O)ccc3OC)c12 [Example 23, (S)-3-(3-((2-amino-4-((1-hydroxyhexan-2-yl)amino)-5H-pyrrolo[3,2-d]pyrimidin-5-yl)methyl)-4-methoxyphenyl)propanoic acid]
0.08 | CCCCCNc1nc(N)nc2ccn(Cc3cc(CN4CCC[C@@H]4C(=O)O)ccc3OC)c12 [Example 24, (R)-1-(3-((2-amino-4-(pentylamino)-5H-pyrrolo[3,2-d]pyrimidin-5-yl)methyl)-4-methoxybenzyl)pyrrolidine-2-carboxylic acid]
0.008 | CCCCCNc1nc(N)nc2ccn(Cc3ccc(CN4CCC[C@H]4C(=O)O)cc3OC)c12 [Example 25, (S)-1-(4-((2-amino-4-(pentylamino)-5H-pyrrolo[3,2-d]pyrimidin-5-yl)methyl)-3-methoxybenzyl)pyrrolidine-2-carboxylic acid]
0.4 | CCCCCNc1nc(N)nc2ccn(Cc3ccc(OCC(=O)O)cc3OC)c12 [Example 26, 2-(4-((2-amino-4-(pentylamino)-5H-pyrrolo[3,2-d]pyrimidin-5-yl)methyl)-3-methoxyphenoxy)acetic acid]

SMILES | EC50 [µM]
CCCCCNc1nc(N)nc2ccn(Cc3cc(P(=O)(O)OC)ccc3OC)c12 [Example 20, methyl hydrogen (3-((2-amino-4-(pentylamino)-5H-pyrrolo[3,2-d]pyrimidin-5-yl)methyl)-4-methoxyphenyl)phosphonate] | 0.3
